Holding throughout (experiment): NCI anticancer screen, dose series, 48 h
For test [1], the system named is BT-549.
Test [2] relates to DU-145.
Test [3] relates to EKVX.
The subject of test [4] is HCC 2998.
In test [5] the test system is HCT-116.
Test [6] relates to HOP-92.
The test system of test [7] is HT-29.
Test [8] concerns KM12.
Test [9] relates to M14.
The subject of test [10] is MCF7.
For test [11], the system named is MDA-MB-231.
Test [12] deals with OVCAR-5.
Test [13] has as its system SF-268.
Test [14] relates to SF-539.
The test system of test [15] is SK-MEL-2.
Test [16] concerns SK-MEL-5.
Test [17] concerns SR.
Test [18] relates to TK-10.
In test [19] the test system is UACC-62.

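How tested: cells in 96-well plates exposed to compound for 48 hours at five concentrations. The concentration for 50% growth inhibition is given as GI50.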 The source made the active and inactive calls. Cut-off read from the data, not from the text of the source: active = GI50 up to about 1.1 µM and inactive = higher.

Regarding `CC1CCC2(OC1)OC1CC3C4CC=C5CC(OC6OC(CO)C(OC7OC(C)C(OC8OC(C)C(O)C(O)C8O)C(O)C7O)C(O)C6OC6OC(C)C(O)C(O)C6O)CCC5(C)C4CCC3(C)C1C2C` (stereo not drawn), the GI50 in test [1] was 1.66 µM (inactive); in test [2], 1.28 µM (inactive); in test [3], 0.757 µM (active); in test [4], 0.313 µM (active); in [5], 0.521 µM (active); in [6] it was 0.0703 µM (active). Besides, the GI50 in test [7] is 1 µM (active); in test [8], 0.16 µM (active); in [9] it was 1.05 µM (active); in test [10] it was 1.38 µM (inactive); in test [11], 0.0628 µM (active); in [12], 1.12 µM (inactive). Also, the GI50 in test [13] is 0.56 µM (active); in test [14] it was 0.394 µM (active); in test [15], 1.21 µM (inactive); in test [16], 1.43 µM (inactive); in [17], 0.0196 µM (active); in test [18] it was 1.39 µM (inactive). Moreover, the GI50 in test [19] is 0.311 µM (active).

With `CC(=O)Oc1ccc2c(C)cc(=O)oc2c1`, the GI50 in test [1], in [2], in test [3], in test [4], in test [5] and in test [6] was > 100 µM (inactive) each time. The GI50 in test [7], in [8], in test [9], in test [10], in test [11] and in test [12] was > 100 µM (inactive) in each case. The GI50 in test [13], in test [14], in test [15], in test [16], in test [17] and in [18] was > 100 µM (inactive) throughout. In test [19], the GI50 was > 100 µM (inactive).

As to `O=C1C(Br)=Cc2c(Cl)sc(Cl)c21`, the GI50 in [1] is 22.2 µM (inactive); in [2], 5.42 µM (inactive); in [3], 7.24 µM (inactive); in test [4], 2.37 µM (inactive); in [5] it was 2.03 µM (inactive); in test [6] it was 2.84 µM (inactive). Further, the GI50 in test [7] was 4.58 µM (inactive); in test [8], 6.5 µM (inactive); in [9], 7.05 µM (inactive); in test [10] it was 2.44 µM (inactive); in [11], 3.13 µM (inactive); in test [12], 13.3 µM (inactive). For the same compound, the GI50 in [13] is 3.4 µM (inactive); in [14] it was 4.24 µM (inactive); in test [15], 13.6 µM (inactive); in [16] it was 19.5 µM (inactive); in [17], 2.15 µM (inactive); in test [18], 2.17 µM (inactive). For the same compound, in test [19], the GI50 was 7.91 µM (inactive).

Regarding `COP(=O)(OC)C(NC=O)P(=O)(OC)OC`, the GI50 in test [1], in test [2], in [3], in test [4], in [5] and in test [6] was > 100 µM (inactive) in each case. Moreover, the GI50 in [7], in test [9], in test [10], in [11], in [13] and in test [14] was > 100 µM (inactive) each time. Besides, the GI50 in test [16], in [17], in test [18] and in [19] was > 100 µM (inactive) throughout.

Take `COc1ccc(P2(=S)Oc3ccc(C(c4ccccc4)(c4ccccc4)c4ccccc4)cc3O2)cc1` (stereo not drawn): the GI50 is 24.9 µM (inactive) in [1]; 20.5 µM (inactive) in [2]; 20.2 µM (inactive) in test [3]; 16.3 µM (inactive) in test [4]; 17.8 µM (inactive) in [5]; 18.1 µM (inactive) in test [6]. Moreover, the GI50 in test [7] was 18.8 µM (inactive); in [8], 15 µM (inactive); in [9], 14.1 µM (inactive); in test [10] it was 16.8 µM (inactive); in test [11], 21.2 µM (inactive); in test [12], 19.5 µM (inactive). The GI50 in test [13] is 17.2 µM (inactive); in test [14], 19.9 µM (inactive); in test [15], 20.5 µM (inactive); in [16], 21.6 µM (inactive); in [17], 22.3 µM (inactive); in [18], 19.1 µM (inactive). The GI50 in test [19] is 13.4 µM (inactive).

For `c1ccc(C(OCCN2CC3CCC(C2)N3)c2ccccc2)cc1`, the GI50 in [1] is 22 µM (inactive); in [2] it was > 100 µM (inactive); in [3], > 100 µM (inactive); in test [4] it was 17.8 µM (inactive); in [5], 40.4 µM (inactive); in test [6] it was 18.3 µM (inactive). Moreover, the GI50 in [7] was 31.6 µM (inactive); in [8], 54 µM (inactive); in [9] it was 17.1 µM (inactive); in test [10] it was 48.6 µM (inactive); in test [11], > 100 µM (inactive); in test [12], > 100 µM (inactive). The GI50 in [13] is > 100 µM (inactive); in [14] it was 82.4 µM (inactive); in test [15] it was 76.7 µM (inactive); in test [16] it was 18.5 µM (inactive); in [17], 31.6 µM (inactive); in test [18], > 100 µM (inactive). In addition, in [19], the GI50 was 27.7 µM (inactive).

As to `CC1=CCC([C@@](C)(O)CCCC(C)(C)N=C=S)CC1` (stereo partly drawn), the GI50 in test [1] was 17.8 µM (inactive); in test [2], 16.4 µM (inactive); in test [3], 17 µM (inactive); in test [4] it was 18.2 µM (inactive); in [5] it was 13.7 µM (inactive); in test [6], 18.5 µM (inactive). In addition, the GI50 in test [7] is 17.7 µM (inactive); in [8] it was 15.5 µM (inactive); in test [9], 17.1 µM (inactive); in [10], 18.7 µM (inactive); in test [11] it was 19.1 µM (inactive); in [12], 19.4 µM (inactive). Besides, the GI50 in test [13] was 16.8 µM (inactive); in test [14], 19.2 µM (inactive); in [15] it was 17.7 µM (inactive); in test [16] it was 15.4 µM (inactive); in [17] it was 19.8 µM (inactive); in [18] it was 22 µM (inactive). In [19], the GI50 is 16.9 µM (inactive).

Turning to `Cn1c(=O)c2nc(CCCc3ccc([N+](=O)[O-])cc3)[nH]c2n(C)c1=O`, the GI50 in [1], in [2], in test [3], in test [5], in test [6] and in [7] was > 100 µM (inactive) throughout. Moreover, the GI50 in test [8], in [9], in test [10], in [11], in test [12] and in [13] was > 100 µM (inactive) throughout. Moreover, the GI50 in test [14] was 38.5 µM (inactive); in test [15], > 100 µM (inactive); in [16] it was 59.3 µM (inactive); in [17] it was > 100 µM (inactive); in test [18], > 100 µM (inactive); in [19], > 100 µM (inactive).

For the origin of these results see ChEMBL document CHEMBL1201862, “PubChem BioAssay data set” (2004).
